Reference: US11053204B2, “Pyrimidinyloxy benzene derivatives as herbicides” (FMC Corporation, priority 2015, dated 2021)

Columns and labels:
Format in all cases: in vivo
[1] = system: morningglory (Ipomoea coccinea); assay: Test C postemergence, plant response rating; settings: Ipomoea, post-emergence
Method in brief: (§1)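 Visual injury score, 0 = no effect, 100 = complete control, assigned against untreated controls after 13 to 15 d in the greenhouse. Compounds were applied in a surfactant-containing non-phytotoxic solvent mix, preemergence to seeded loam/sand or silt loam soil, or postemergence to 1- to 4-leaf plants (2 to 18 cm).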

[2] = system: oilseed rape (Brassica napus); assay: Test C postemergence, plant response rating; settings: Brassica napus, post-emergence
Method in brief: as §1

[3] = system: galium (catchweed bedstraw, Galium aparine); assay: Test C postemergence, plant response rating; settings: Galium, post-emergence
Method in brief: as §1

[4] = system: wheat (winter wheat, Triticum aestivum); assay: Test C postemergence, plant response rating; settings: Triticum aestivum, post-emergence
Method in brief: as §1

[5] = system: barnyardgrass (Echinochloa crus-galli); assay: Test C postemergence, plant response rating; settings: Echinochloa crus-galli, post-emergence
Method in brief: as §1

[6] = system: nutsedge, yellow (yellow nutsedge, Cyperus esculentus); assay: Test C postemergence, plant response rating; settings: Cyperus, post-emergence
Method in brief: as §1

[7] = system: crabgrass, large (large crabgrass, Digitaria sanguinalis); assay: Test C postemergence, plant response rating; settings: Digitaria sanguinalis, post-emergence
Method in brief: as §1

[8] = system: corn (Zea mays); assay: Test C postemergence, plant response rating; settings: Zea mays, post-emergence
Method in brief: as §1

[9] = system: kochia (Kochia scoparia); assay: Test C postemergence, plant response rating; settings: Bassia scoparia, post-emergence
Method in brief: as §1

[10] = system: blackgrass (Alopecurus myosuroides); assay: Test C postemergence, plant response rating; settings: Alopecurus myosuroides, post-emergence
Method in brief: as §1

[11] = system: barnyardgrass (Echinochloa crus-galli); assay: Test B flooded paddy test, plant response rating; settings: Echinochloa crus-galli, 312 h; 250 g ai/ha; Flood; scale of 0 to 100 where 0 is no effect and 100 is complete control; 13 to 15 days
Method in brief: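 Pots were flooded to 3 cm above the soil surface at treatment, compound applied directly to the paddy water, and that depth held throughout. Plants were kept in a greenhouse for 13 to 15 days, then visually rated against untreated controls.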

[12] = system: giant foxtail (Setaria faberii); assay: Test A preemergence, visual injury rating; settings: Setaria faberi, pre-emergence, 240 h, 0 to 100 scale (0 no effect, 100 complete control), read-out: Foxtail, Giant plant response rating
Method in brief: (§2)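 Visual injury scored 0–100 (100 = complete control) against untreated controls about 10 days after treatment in a greenhouse. Test chemicals, formulated with surfactant in non-phytotoxic solvent, were sprayed on soil preemergence or on 2-10 cm, one- to two-leaf plants postemergence.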

[13] = system: Italian ryegrass (Lolium multiflorum); assay: Test A preemergence, visual injury rating; settings: Lolium multiflorum, pre-emergence, 240 h, 0 to 100 scale (0 no effect, 100 complete control), read-out: Ryegrass, Italian plant response rating
Method in brief: as §2

[14] = system: barnyardgrass (Echinochloa crus-galli); assay: Test A preemergence, visual injury rating; settings: Echinochloa crus-galli, pre-emergence, 240 h, 0 to 100 scale (0 no effect, 100 complete control), read-out: Barnyardgrass plant response rating
Method in brief: as §2

[15] = system: pigweed (Amaranthus retroflexus); assay: Test A preemergence, visual injury rating; settings: Amaranthus retroflexus, pre-emergence, 240 h, 0 to 100 scale (0 no effect, 100 complete control), read-out: Pigweed plant response rating
Method in brief: as §2

[16] = system: ragweed (common ragweed, Ambrosia elatior); assay: Test A preemergence, visual injury rating; settings: Ambrosia artemisiifolia, pre-emergence, 240 h, 0 to 100 scale (0 no effect, 100 complete control), read-out: Ragweed plant response rating
Method in brief: as §2

[17] = system: kochia (Kochia scoparia); assay: Test A preemergence, visual injury rating; settings: Bassia scoparia, pre-emergence, 240 h, 0 to 100 scale (0 no effect, 100 complete control), read-out: Kochia plant response rating
Method in brief: as §2

[18] = 62 g ai/ha, scale 0 to 100 (0 no effect, 100 complete control)
[19] = 125 g ai/ha, scale 0 to 100 (0 no effect, 100 complete control)

`C=CCCOC(=O)c1c(Br)cccc1Oc1ncc(Cl)cn1` [Compound 21, 3-buten-1-yl 2-bromo-6-[(5-chloro-2-pyrimidinyl)oxy]benzoate] was tested. Which pest or weed control at 16 g/ha ([1]; 16 g ai/ha, scale 0 to 100) did it give?
Its pest or weed control at 16 g/ha is 10%.

And the pest or weed control at 31 g/ha ([1]; 31 g ai/ha, scale 0 to 100)?
Its pest or weed control at 31 g/ha is 25%.

What about the pest or weed control at 62 g/ha [1, 18] of the same molecule?
The pest or weed control at 62 g/ha was 40%.

What about the pest or weed control at 125 g/ha [1, 19] of the same molecule?
Its pest or weed control at 125 g/ha is 70%.

What about the plant injury at 16 g/ha ([2]; 16 g ai/ha, scale 0 to 100) of the same molecule?
Its plant injury at 16 g/ha is 30%.

What about the plant injury at 31 g/ha ([2]; 31 g ai/ha, scale 0 to 100) of the same molecule?
Its plant injury at 31 g/ha is 40%.

And the plant injury at 62 g/ha [2, 18]?
The plant injury at 62 g/ha was 50%.

And the plant injury at 125 g/ha [2, 19]?
Its plant injury at 125 g/ha is 30%.

And the pest or weed control at 16 g/ha ([3]; 16 g ai/ha, scale 0 to 100)?
The pest or weed control at 16 g/ha was 55%.

What about the pest or weed control at 31 g/ha ([3]; 31 g ai/ha, scale 0 to 100) of the same molecule?
The pest or weed control at 31 g/ha was 80%.

And the pest or weed control at 62 g/ha [3, 18]?
Its pest or weed control at 62 g/ha is 75%.

And the pest or weed control at 125 g/ha [3, 19]?
The pest or weed control at 125 g/ha was 80%.

What about the plant injury at 16 g/ha ([4]; 16 g ai/ha, scale 0 to 100) of the same molecule?
Its plant injury at 16 g/ha is 0%.

What about the plant injury at 31 g/ha ([4]; 31 g ai/ha, scale 0 to 100) of the same molecule?
Its plant injury at 31 g/ha is 0%.

What about the plant injury at 62 g/ha ([4]; 62 g ai/ha, scale 0 to 100 (0 no effect, 100 complete control), read-out: Wheat plant response rating) of the same molecule?
Its plant injury at 62 g/ha is 0%.

What about the plant injury at 125 g/ha [4, 19] of the same molecule?
Its plant injury at 125 g/ha is 0%.

And the pest or weed control at 16 g/ha ([5]; 16 g ai/ha, scale 0 to 100)?
The pest or weed control at 16 g/ha was 10%.

And the pest or weed control at 31 g/ha ([5]; 31 g ai/ha, scale 0 to 100)?
The pest or weed control at 31 g/ha was 10%.

And the pest or weed control at 62 g/ha [5, 18]?
The pest or weed control at 62 g/ha was 20%.

And the pest or weed control at 125 g/ha [5, 19]?
Its pest or weed control at 125 g/ha is 20%.

And the pest or weed control at 16 g/ha ([6]; 16 g ai/ha, scale 0 to 100)?
Its pest or weed control at 16 g/ha is 0%.

What about the pest or weed control at 31 g/ha ([6]; 31 g ai/ha, scale 0 to 100) of the same molecule?
Its pest or weed control at 31 g/ha is 0%.

What about the pest or weed control at 62 g/ha [6, 18] of the same molecule?
Its pest or weed control at 62 g/ha is 5%.

And the pest or weed control at 125 g/ha [6, 19]?
Its pest or weed control at 125 g/ha is 10%.

What about the pest or weed control at 16 g/ha ([7]; 16 g ai/ha, scale 0 to 100) of the same molecule?
The pest or weed control at 16 g/ha was 10%.

And the pest or weed control at 31 g/ha ([7]; 31 g ai/ha, scale 0 to 100)?
The pest or weed control at 31 g/ha was 20%.

And the pest or weed control at 62 g/ha [7, 18]?
Its pest or weed control at 62 g/ha is 25%.

And the pest or weed control at 125 g/ha [7, 19]?
The pest or weed control at 125 g/ha was 35%.

What about the Corn plant response rating (crop injury, 0 = no effect, 100 = complete kill) at 16 g/ha ([8]; 16 g ai/ha, scale 0 to 100) of the same molecule?
Its Corn plant response rating (crop injury, 0 = no effect, 100 = complete kill) at 16 g/ha is 5%.

What about the Corn plant response rating (crop injury, 0 = no effect, 100 = complete kill) at 31 g/ha ([8]; 31 g ai/ha, scale 0 to 100) of the same molecule?
The Corn plant response rating (crop injury, 0 = no effect, 100 = complete kill) at 31 g/ha was 5%.

And the plant injury at 62 g/ha [8, 18]?
The plant injury at 62 g/ha was 15%.

And the plant injury at 125 g/ha [8, 19]?
Its plant injury at 125 g/ha is 20%.

And the pest or weed control at 16 g/ha ([9]; 16 g ai/ha, scale 0 to 100)?
The pest or weed control at 16 g/ha was 60%.

What about the pest or weed control at 31 g/ha ([9]; 31 g ai/ha, scale 0 to 100) of the same molecule?
Its pest or weed control at 31 g/ha is 50%.

And the pest or weed control at 62 g/ha [9, 18]?
Its pest or weed control at 62 g/ha is 90%.

And the pest or weed control at 125 g/ha [9, 19]?
Its pest or weed control at 125 g/ha is 90%.

And the pest or weed control at 16 g/ha ([10]; 16 g ai/ha, scale 0 to 100)?
The pest or weed control at 16 g/ha was 0%.

What about the pest or weed control at 31 g/ha ([10]; 31 g ai/ha, scale 0 to 100) of the same molecule?
The pest or weed control at 31 g/ha was 0%.

And the pest or weed control at 62 g/ha [10, 18]?
Its pest or weed control at 62 g/ha is 5%.

What about the pest or weed control at 125 g/ha [10, 19] of the same molecule?
Its pest or weed control at 125 g/ha is 5%.

And the pest or weed control at 250 g/ha [11]?
The pest or weed control at 250 g/ha was 30%.

And the pest or weed control at 125 g/ha ([12]; 125 g ai/ha)?
The pest or weed control at 125 g/ha was 100%.

And the pest or weed control at 500 g/ha ([12]; 500 g ai/ha)?
The pest or weed control at 500 g/ha was 100%.

And the pest or weed control at 125 g/ha ([13]; 125 g ai/ha)?
Its pest or weed control at 125 g/ha is 30%.

What about the pest or weed control at 500 g/ha ([13]; 500 g ai/ha) of the same molecule?
Its pest or weed control at 500 g/ha is 90%.

And the pest or weed control at 125 g/ha ([14]; 125 g ai/ha)?
Its pest or weed control at 125 g/ha is 100%.

And the pest or weed control at 500 g/ha ([14]; 500 g ai/ha)?
Its pest or weed control at 500 g/ha is 100%.

What about the pest or weed control at 125 g/ha ([15]; 125 g ai/ha) of the same molecule?
Its pest or weed control at 125 g/ha is 100%.

And the pest or weed control at 500 g/ha ([15]; 500 g ai/ha)?
The pest or weed control at 500 g/ha was 100%.

What about the pest or weed control at 125 g/ha ([16]; 125 g ai/ha) of the same molecule?
Its pest or weed control at 125 g/ha is 0%.

And the pest or weed control at 500 g/ha ([16]; 500 g ai/ha)?
The pest or weed control at 500 g/ha was 0%.

And the pest or weed control at 125 g/ha ([17]; 125 g ai/ha)?
Its pest or weed control at 125 g/ha is 40%.

And the pest or weed control at 500 g/ha ([17]; 500 g ai/ha)?
The pest or weed control at 500 g/ha was 100%.
